Measured values taken from patent US8008354B2, “Death receptor sensitizing compounds and methods of use therefor” (Burnham Institute for Medical Research, priority 2006, dated 2011).

Tested on: dsRed-PPC-1 cells
Assay: In vivo survival and growth of pre-treated dsRed-PPC-1 cells injected into SCID mice
Method: FIG. 16. Decreases in cellular FLIP levels by siRNA diminishes the in vivo survival and growth of circulating prostate cancer cells. (A) Fluorescent dsRed-PPC-1 cells were transfected in culture with anti-FLIP siRNA (siFLIP, 25 nM) or control siRNA (siCtrl, 25 nM). Eight hours after transfection cells were harvested and 3.5×10^6 viable cells were injected into the tail veins of sublethally irradiated SCID mice. Five weeks after injection, or when mice became moribund, mice were sacrificed and their organs imaged using a fluorescent microscope (n=9). Representative images of tumor formation in the lung, bone, and liver are shown. (B) The total number and area of distant tumors from mice described above were quantified using image analysis software. Tumors were quantified from all five lobes of the lungs. Data points represent measurements from each mouse. Differences in the number and area of tumors are significant by the rank sum test. The bar represents the median of the population. Measurements were completed on unaltered images.
FIG. 17. Decreases in cellular FLIP levels by 5809354 diminishes the in vivo survival and growth of circulating prostate cancer cells. (A) Fluorescent dsRed-PPC-1 cells were treated in culture with 5809354 (30 μM) or buffer control. Sixteen hours after treatment cells were harvested and 3.5×10^6 viable cells were injected into the tail veins of sublethally irradiated SCID mice. Five weeks after injection, or when mice became moribund, mice were sacrificed and their organs imaged using a fluorescent microscope (n=8). Representative images of tumor formation in the lung, bone, and liver are shown. (B) The number and area of distant tumors from mice described above were quantified using image analysis software. Tumors were quantified from all five lobes of the lungs. Data points represent measurements from each mouse. Differences in the number and area of tumors are significant by the rank sum test. […]
In vivo studies. […] 3.5×10^6 viable cells (as measured by trypan blue exclusion assay) were either injected via the tail vein or subcutaneously into the hind limbs into sublethally irradiated (3.5 Gy) SCID mice (10 mice per treatment). […] Red fluorescent tumors were detected via whole body imaging and whole organ imaging using a Leica MZ FLIII fluorescent stereomicroscope with a 100 W mercury lamp, a 560/40 excitation filter, and a 610 long-pass emission filter. Images were acquired using a Leica DC350 digital camera at 0.8× magnification and analyzed using Image Pro Plus 6.0 (MediaCybernetics). A single common threshold was applied to identify and measure fluorescence in each organ (Cairns et al., 2004). The number of fluorescent spots and the corresponding pixel area were recorded for each lung lobe. All quantification was performed on unmanipulated images. […]

## 4-(4-chloro-2-methylphenoxy)-N-hydroxybutanamide [compound 5809354]
Cells treated in culture (5809354 30 μM 16 hours; FLIP siRNA 25 nM 8 hours), injected into tail veins of sublethally irradiated SCID mice
  Median survival: 32 days
Intravenous injection of treated cells, five weeks or when moribund
  tumor formation in lung, bone, and liver: decreased tumor formation
Intravenous injection of treated cells, image-based analysis
  median tumor number and median total tumor area within the lung: decreased
Subcutaneous injection of treated cells, 3 weeks (data not shown)
  tumor weight after subcutaneous injection: no difference
